The values that follow come from article PMC12345137 (mBio, 2025).

Where two headings read alike, the source gives them in different places. Positions of bridges follow the written chain, without caps; N, C: chain ends. Residues, ends and D or L forms follow the SMILES beside them.

For one test, the target named is S. aureus agr-II (Staphylococcus aureus, UniProt O33587). The test can be described thus: cell-based. As to the method:
(§1) Peptides were evaluated for the ability to interfere with agr-mediated quorum sensing in S. aureus (AH1677, AH430, AH1747, and AH1872 for agr-I–IV, respectively) ([40]) using reporter strains expressing yellow fluorescent protein (YFP) upon agr activation. Interference with agr-mediated quorum sensing in S. epidermidis (AH3408, AH3623, and AH3409 for agr-I–III, respectively) ([45]), and S. lugdunensis (AH4031 for agr-I) ([37]) was evaluated using reporter strains expressing superfolder green fluorescent protein (sGFP) upon agr activation. Overnight cultures of the reporter strains were grown in TSB medium containing chloramphenicol (CAM, 10 μg/mL for S. aureus) or erythromycin (ERM, 10 μg/mL of S. epidermidis and S. lugdunensis) and diluted 1:100 in fresh TSB medium containing the same antibiotic. Assays were performed in sterile black 96-well plates with a clear bottom. […] DMSO stock solutions of peptides (1 mM) were diluted in TSB media and added (15 μL) in technical triplicate to the 96-well plate, followed by diluted bacterial overnight cultures (135 μL). Control wells for 100% agr activity were wells replacing the peptide solution with TSB medium (15 μL). […] Wells containing 150 μL TSB medium were used to measure background fluorescence. The 96-well plates were incubated in a humidified incubator at 37°C shaking at 1,000 rpm for 22–24 h and fluorescence (for GFP: excitation 479 nm, emission 520 nm; for YFP: excitation 500 nm, emission 541 nm; automatic gain), and OD600 values were subsequently measured using a plate reader. Background fluorescence was subtracted from all wells and further normalized to the corresponding OD600 value of the respective wells. The average fluorescence of control wells was used as a relative measure for 100% activation of the agr-circuit, and bar graphs were generated using GraphPad Prism 10.4 software. All assays were performed in at least a biological duplicate.
(§2) Overnight cultures of the reporter strains were grown in TSB medium containing chloramphenicol (CAM, 10 μg/mL for S. aureus) or erythromycin (ERM, 10 μg/mL of S. epidermidis and S. lugdunensis) and diluted 1:100 in fresh TSB medium containing the same antibiotic. Assays were performed in sterile black 96-well plates with clear bottoms. Peptide solutions (15 μL) in 1:5 serial dilutions from DMSO stock solutions (1 mM) in TSB medium were added to the 96-well plate in technical duplicate followed by diluted bacterial overnight cultures (135 μL). Control wells for 100% agr activity were wells replacing the peptide solution with TSB medium (15 μL). Wells containing 150 μL TSB medium were used to measure background fluorescence. The 96-well plates were incubated in a humidified incubator at 37°C shaking at 1,000 rpm for 22–24 h and fluorescence (for GFP: excitation 479 nm, emission 520 nm; for YFP: excitation 500 nm, emission 541 nm; automatic gain), and OD600 values were subsequently measured using a plate reader. Background fluorescence was subtracted from all wells and further normalized to the corresponding OD600 value of the respective wells. The average fluorescence of control wells was used as a relative measure for 100% activation of the agr-circuit. Relative agr activity was plotted to obtain IC50 values by non-linear regression with variable slope using GraphPad Prism 10.4 software. All assays were performed in biological triplicate.

In a further test the target is S. aureus agr-IV (Staphylococcus aureus, UniProt Q309Z2). The experiment in a line: cell-based. Type of test: cell-based. Particulars: fluorescent reporter strain; peptides tested at 1000, 50, 2.5, 0.125 nM or in dose-response. As to the method: as §1, §2
Sequence of S. aureus agr-IV (Q309Z2 entry or part of it): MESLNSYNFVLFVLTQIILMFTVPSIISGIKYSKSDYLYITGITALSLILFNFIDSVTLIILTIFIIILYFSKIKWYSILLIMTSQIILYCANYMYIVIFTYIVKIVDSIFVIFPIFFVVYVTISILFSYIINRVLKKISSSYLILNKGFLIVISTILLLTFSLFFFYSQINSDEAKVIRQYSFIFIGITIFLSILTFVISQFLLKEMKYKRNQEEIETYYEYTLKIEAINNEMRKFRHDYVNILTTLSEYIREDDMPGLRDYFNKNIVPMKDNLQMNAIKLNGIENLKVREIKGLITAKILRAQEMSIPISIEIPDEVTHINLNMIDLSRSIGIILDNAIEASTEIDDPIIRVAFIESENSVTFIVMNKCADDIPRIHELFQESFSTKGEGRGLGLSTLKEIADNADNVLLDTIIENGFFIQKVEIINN
The target in a further test is S. epidermidis agr-III (Staphylococcus epidermidis, UniProt Q8VSX2). The test can be described thus: cell-based. The format is cell-based. As to the method: as §1, §2
Sequence of S. epidermidis agr-III (Q8VSX2 entry or part of it): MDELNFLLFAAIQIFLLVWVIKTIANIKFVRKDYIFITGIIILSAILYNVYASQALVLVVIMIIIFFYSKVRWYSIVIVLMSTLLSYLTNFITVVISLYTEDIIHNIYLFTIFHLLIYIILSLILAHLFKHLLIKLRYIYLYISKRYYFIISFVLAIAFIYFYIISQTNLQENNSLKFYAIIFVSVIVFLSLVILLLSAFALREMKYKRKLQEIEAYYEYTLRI
The next test has as its target SA AgrC-II (Staphylococcus aureus, UniProt O33587). The experiment in a line: β-Lactamase assay, reporter strain RN10829 (P2-agrA:P3-blaZ) with pagrC-II. Particulars: for IC50, SA AgrC-II, b-lactamase assay: 100 nM cognate AIP, ± SEM, -b = no inhibition recorded at the highest AIP concentration tested, -a = only partial inhibition observed, this study (curves in Fig. S20). Type of test: cell-based. From the text: (§3) The β-lactamase reporter strain RN10829 (P2-agrA:P3-blaZ) ([62]), with pagrC-I ([63]), pagrC-II, pagrC-III, or pagrC-IV ([11]), substituting the native agr locus with a chromosomal integration of P2-agrA and P3-blaZ and a plasmid from which a wild-type variant of the corresponding AgrC is expressed, was used to assess inhibition and activation of the AgrC receptor via β-lactamase activity in response to varying concentrations of the QS modulating peptides. Overnight cultures of the reporter strains in TSB medium were diluted 1:250 in fresh TSB medium and grown to OD600 = 0.35–0.40 (early exponential phase) at 37°C. Peptide solutions (10 μL) in 1:10 serial dilutions from DMSO stock solutions (1 mM) in TSB medium (final concentrations = 10 μM–10 pM) were added to each well of a clear 96-well plate as well as solutions (10 μL) of cognate AIP (final concentration = 100 nM) in TSB medium followed by 80 μL of bacterial cells. Control wells for 100% β-lactamase activity were wells replacing peptide solution with TSB media (10 μL), and control wells for 0% β-lactamase activity were wells replacing both peptide and cognate AIP solutions with TSB medium (20 μL). The 96-well plates were incubated at 37°C shaking at 200 rpm for 1 h and immediately frozen down at −80°C to minimize growth during nitrocefin treatment. Next, the 96-well plates were thawed, and OD600 values were determined using a plate reader followed by the addition of 50 μL of nitrocefin solution to the wells (final concentration = 33.3 μg/mL). β-Lactamase activity was monitored at OD486 every 20 s for 10 min at 37°C using a plate-reader. Linear nitrocefin conversion rates were plotted to obtain IC50 values by non-linear regression with variable slope using GraphPad Prism 10.4 software. Assays were performed at least as duplicate determinations in biological triplicate.

For a further test, the target named is SA AgrC-III (Staphylococcus aureus, UniProt O33590). The experiment in a line: β-Lactamase assay, reporter strain RN10829 (P2-agrA:P3-blaZ) with pagrC-III. Particulars: for IC50, SA AgrC-III, b-lactamase assay: 100 nM cognate AIP, ± SEM, -b = no inhibition recorded at the highest AIP concentration tested, -a = only partial inhibition observed, this study (curves in Fig. S21). Type of test: cell-based.
Sequence of SA AgrC-III (O33590 entry or part of it): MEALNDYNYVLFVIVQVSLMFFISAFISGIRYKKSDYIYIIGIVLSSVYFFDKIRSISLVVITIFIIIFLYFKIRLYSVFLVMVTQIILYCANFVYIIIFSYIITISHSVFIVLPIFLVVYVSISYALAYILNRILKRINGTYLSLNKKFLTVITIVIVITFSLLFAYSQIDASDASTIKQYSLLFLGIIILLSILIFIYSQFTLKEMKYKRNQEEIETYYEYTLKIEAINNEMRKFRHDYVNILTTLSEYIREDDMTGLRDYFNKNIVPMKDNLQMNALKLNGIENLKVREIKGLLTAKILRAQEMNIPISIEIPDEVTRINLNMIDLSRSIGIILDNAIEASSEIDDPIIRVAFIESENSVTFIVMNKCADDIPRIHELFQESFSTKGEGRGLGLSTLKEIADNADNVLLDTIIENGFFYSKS
Excerpt: as §3

The next test concerns the target SA AgrC-IV (Staphylococcus aureus, UniProt Q309Z2). The experiment in a line: β-Lactamase assay, reporter strain RN10829 (P2-agrA:P3-blaZ) with pagrC-IV. The format is cell-based. Particulars: for IC50, SA AgrC-IV, b-lactamase assay: 100 nM cognate AIP, ± SEM, -b = no inhibition recorded at the highest AIP concentration tested, -a = only partial inhibition observed, this study (curves in Fig. S22).
Excerpt: as §3

In another test the test system is S. aureus (SA) agr-II. Particulars: fluorescence, cited from earlier work.
A further test concerns S. aureus (SA) agr-III. Particulars: fluorescence, cited from earlier work.
In a further test the test system is S. aureus (SA) agr-IV. Particulars: fluorescence, cited from earlier work.
The target in the next test is SA AgrC-I (Staphylococcus aureus, UniProt O07911). The experiment in a line: β-Lactamase assay, reporter strain RN10829 (P2-agrA:P3-blaZ) with pagrC-I. Type of test: cell-based.
Sequence of SA AgrC-I (O07911 entry or part of it): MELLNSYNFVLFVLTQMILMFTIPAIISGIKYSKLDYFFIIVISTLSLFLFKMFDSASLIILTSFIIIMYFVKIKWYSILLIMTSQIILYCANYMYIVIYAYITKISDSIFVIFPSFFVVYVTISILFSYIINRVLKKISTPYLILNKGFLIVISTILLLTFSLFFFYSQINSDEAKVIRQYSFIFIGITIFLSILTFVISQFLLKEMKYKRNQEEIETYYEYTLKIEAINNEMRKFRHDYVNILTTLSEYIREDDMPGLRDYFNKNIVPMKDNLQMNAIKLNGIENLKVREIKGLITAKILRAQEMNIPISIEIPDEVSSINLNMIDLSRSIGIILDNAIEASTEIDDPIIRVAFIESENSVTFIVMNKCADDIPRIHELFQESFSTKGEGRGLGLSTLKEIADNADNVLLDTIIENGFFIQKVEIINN
Excerpt: as §3, with “Control wells for 100% β-lactamase activity were wells replacing peptide solution with TSB media (10 μL), and control wells for 0% β-lactamase activity were wells replacing both peptide and cognate AIP solutions with TSB medium (20 μL).” left out

Another test relates to S. aureus (SA) agr-I. Particulars: fluorescence, cited from earlier work.
Test [1] deals with S. epidermidis (SE) agr-I. Particulars: fluorescence, cited from earlier work.
The test system of test [2] is S. epidermidis (SE) agr-II. Particulars: fluorescence, cited from earlier work.
In test [3] the test system is S. epidermidis (SE) agr-III. Particulars: fluorescence, cited from earlier work.

Sequence of SA AgrC-II (O33587 entry or part of it): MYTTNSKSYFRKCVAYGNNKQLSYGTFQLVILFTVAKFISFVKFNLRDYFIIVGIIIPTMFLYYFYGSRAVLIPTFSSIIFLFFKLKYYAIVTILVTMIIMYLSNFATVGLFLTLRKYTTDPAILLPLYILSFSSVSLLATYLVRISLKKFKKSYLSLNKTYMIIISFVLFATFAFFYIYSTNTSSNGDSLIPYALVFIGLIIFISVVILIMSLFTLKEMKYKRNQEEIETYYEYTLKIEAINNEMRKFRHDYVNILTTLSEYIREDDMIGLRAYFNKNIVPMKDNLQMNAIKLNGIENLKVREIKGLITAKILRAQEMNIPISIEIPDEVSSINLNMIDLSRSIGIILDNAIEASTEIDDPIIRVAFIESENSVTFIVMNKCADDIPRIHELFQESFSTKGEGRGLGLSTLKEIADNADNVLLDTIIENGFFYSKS
Sequence of SA AgrC-IV (Q309Z2 entry or part of it): as the sequence (Q309Z2 entry or part of it) above
Sequence of S. aureus agr-II (O33587 entry or part of it): as the sequence (O33587 entry or part of it) above

Consider `CC[C@H](C)[C@H](NC(=O)[C@@H](N)CC(=O)O)C(=O)N[C@H]1CSC(=O)[C@H](Cc2ccccc2)NC(=O)[C@H](Cc2ccc(O)cc2)NC(=O)[C@H](C)NC(=O)[C@H](CC(N)=O)NC1=O` [compound 8, S. lugdunensis AIP-I] (H-DICNAYF; thioester 3-C; N-terminus assumed), for which the IC50 against S. aureus agr-II was 234 nM; at S. epidermidis agr-III, 66.8 ± 2.9 nM; on SA AgrC-III, above 1000 nM; in the test with S. aureus (SA) agr-II (ref (10)) it was 419 nM; with S. aureus (SA) agr-III (ref (10)), 36.6 nM; with S. aureus (SA) agr-IV (ref (10)) it was above 1000 nM. Besides, at S. aureus agr-IV, the “QS interaction in words (inhibition / activation), S. aureus agr-IV” value is reported as “no effect at 1000 nM”. Moreover, the “IC50, SA AgrC-II, b-lactamase assay” value on SA AgrC-II is on record as “-b”. In addition, the “IC50, SA AgrC-IV, b-lactamase assay” value against SA AgrC-IV is given as “-b”.
At SA AgrC-I, `CC[C@H](C)[C@H](NC(=O)[C@@H](N)[C@@H](C)O)C(=O)N[C@@H](CO)C(=O)N[C@@H](CO)C(=O)N[C@H](C(=O)N[C@@H](CCCCN)C(=O)N1CCC[C@H]1C(=O)N[C@H]1CSC(=O)[C@H](C(C)C)NC(=O)[C@H](Cc2ccccc2)NC(=O)CNC(=O)[C@H]([C@@H](C)O)NC1=O)C(C)C` [compound 18, S. cohnii AIP-I] (H-TISSVKPCTGFV; thioester 8-C) gave an IC50 above 10000 nM. For the same compound, the “IC50, SA AgrC-II, b-lactamase assay” value on SA AgrC-II is “-b”. Also, the “IC50, SA AgrC-III, b-lactamase assay” value against SA AgrC-III is “-b”. At SA AgrC-IV, the “IC50, SA AgrC-IV, b-lactamase assay” value was “-b”.
As for `C[C@@H](O)[C@H](NC(=O)[C@H](CO)NC(=O)[C@@H](N)Cc1ccc(O)cc1)C(=O)N[C@H]1CSC(=O)[C@H](Cc2ccccc2)NC(=O)[C@H](Cc2ccc(O)cc2)NC(=O)[C@H](Cc2ccc(O)cc2)NC(=O)[C@H](CO)NC1=O` [compound 20, S. caprae AIP-I] (H-YSTCSYYF; thioester 4-C), the IC50 against SA AgrC-I was 5.7 ± 0.8 nM; against SA AgrC-II, 252 ± 44 nM; against SA AgrC-IV, 199 ± 19 nM; in the test with S. aureus (SA) agr-I (ref (15)) it was 0.6 ± 0.02 nM; in the test on S. aureus (SA) agr-II (ref (15)) it was 0.26 ± 0.08 nM; in the test with S. aureus (SA) agr-III (ref (15)), 0.2 nM. The IC50 in the test with S. aureus (SA) agr-IV (ref (15)) is 8.98 ± 0.32 nM. Besides, the “IC50, SA AgrC-III, b-lactamase assay” value on SA AgrC-III is recorded as “-a”.
With `C[C@H](N)C(=O)N[C@@H](CC(N)=O)C(=O)N1CCC[C@H]1C(=O)N[C@H]1CSC(=O)[C@H](Cc2ccccc2)NC(=O)[C@H](Cc2ccc(O)cc2)NC(=O)CNC(=O)[C@H](C)NC1=O` [compound 21, S. pasteuri AIP-I] (H-ANPCAGYF; thioester 4-C), the IC50 on SA AgrC-I was 155 ± 34 nM; at SA AgrC-III, 191 ± 18 nM; at SA AgrC-IV, above 1000 nM. Also, at SA AgrC-II, the “IC50, SA AgrC-II, b-lactamase assay” value was “-b”.
On to `CC(C)C[C@H](NC(=O)[C@H](C)NC(=O)CNC(=O)[C@H](C)NC(=O)[C@@H](NC(=O)[C@H](C)N)[C@@H](C)O)C(=O)N1CCC[C@H]1C(=O)N[C@H]1CSC(=O)[C@H](Cc2ccccc2)NC(=O)[C@H](Cc2ccccc2)NC(=O)CNC(=O)CNC1=O` [compound 23, S. succinus AIP-I] (H-ATAGALPCGGFF; thioester 8-C), for which the IC50 against SA AgrC-I is 117 ± 26 nM; against SA AgrC-II, 854 ± 65 nM; at SA AgrC-III, above 1000 nM; against SA AgrC-IV, above 1000 nM.
As for S. epidermidis AIP-II [compound 6], on SA AgrC-II, the “IC50, SA AgrC-II, b-lactamase assay” value is “-b”. In addition, the “IC50, SA AgrC-III, b-lactamase assay” value at SA AgrC-III is recorded as “-b”. Also, on SA AgrC-IV, the “IC50, SA AgrC-IV, b-lactamase assay” value is reported as “-b”. Besides, the “inhibition at 100 nM, SA agr-I” value with S. aureus (SA) agr-I (at 100 nM, ref (11)) is recorded as “no inhibition”. In addition, the “inhibition at 100 nM, SA agr-II” value in the test with S. aureus (SA) agr-II (at 100 nM, ref (11)) is “no inhibition”. Also, the “inhibition at 100 nM, SA agr-III” value with S. aureus (SA) agr-III (at 100 nM, ref (11)) is reported as “no inhibition”. Besides, the “inhibition at 100 nM, SA agr-IV” value with S. aureus (SA) agr-IV (at 100 nM, ref (11)) is listed as “no inhibition”. Moreover, the “effect from supernatant (% inhibition, activation or no effect), SE agr-I” value in test [1] (from supernatant, ref (18)) was ~ 90%. In test [1] (ref (11)), the IC50 is 9.64 nM. In addition, in [2] (at 10 µM, ref (11)), the “effect at 10 µM, SE agr-II” value is “activation”. For the same compound, in test [2] (from supernatant, ref (18)), the “effect from supernatant (% inhibition, activation or no effect), SE agr-II” value is on record as “activation”. Further, the “effect at 10 µM, SE agr-III” value in test [3] (at 10 µM, ref (11)) is recorded as “no effect”. Besides, the “effect from supernatant (% inhibition, activation or no effect), SE agr-III” value in test [3] (from supernatant, ref (18)) is listed as “no effect”.

In general, IC50 refers to the midpoint of a concentration-inhibition curve.
